Data from patent EP4631969A1, “PEPTIDE FOR CARTILAGE REGENERATION, AND USES THEREOF” (Caregen Co., Ltd., priority 2022, dated 2024).
Where no end group is shown, it is not given here.

Tested on: Human Adipose-Derived Mesenchymal Stem Cells (AD-MSC)
Experiment: Confirmation of cytotoxicity (CCK-8 activity test and SRB staining)
Assay type: cell-based
Details: about 1 to 200 µg/ml, 7 days of culture; for cytotoxicity: CCK-8; for change in cell morphology: SRB staining, microscope
Method: Human Adipose-Derived Mesenchymal Stem Cells (AD-MSC) were treated with Peptide-1 or Peptide-2 to determine whether they were cytotoxic.
Specifically, AD-MSCs were seeded in 96-well plates at a concentration of about 1.5 x 10^3 cells/well and cultured in DMEM medium (about 10 % FBS + DMEM medium) for about 24 hours. […] After 7 days of culture, about 1/10 of the culture medium was treated with a CCK-8 (Dojindo, CCK-8 kit) solution and cultured for about 2 hours. After incubation, the culture medium was sampled and the absorbance was measured at a wavelength of about 450 nm using a microplate reader. After measuring the absorbance, the medium in the culture medium in the 96-well plate was removed, and about 60 µl of 3.7 % formalin was added to the 96-well plate to fix the cells for about 1 minute. After cell fixation, the formalin was removed, and about 70 ul of SRB staining solution (about 0.2 g of Sulforhodamine B sodium salt (sigma, S9012) dissolved in about 100 ml of double-distilled water) was added to the fixed cells, and the cells were stained by culturing overnight at room temperature in a lightblocking condition. After cell staining, the cells were washed with about 1 % acetic acid and dried. The dried cells were observed under a microscope. As control groups, an experimental group (CON) that was not treated with the above peptide and an experimental group (CM) treated with a solution containing about 100 nM dexamethasone, about 50 µM ascorbic acid, about 40 µM proline, about 10 ng/ml TGFβ1, and 1X ITS instead of the above peptide were used.

| Substance | cytotoxicity | change in cell morphology |
| --- | --- | --- |
| STGALSTSFTEE [Peptide-1, STGALSTSFTEE] | no cytotoxicity was caused | no change in cell morphology occurred at all concentrations |
| HHEQF [Peptide-2, HHEQF] | no cytotoxicity was caused | no change in cell morphology occurred at all concentrations |
